Experimental data reported in patent US20250283050A1, “METHOD OF CANCER TREATMENT” (priority 2021, published 2025).
Entries after “also recorded” stand apart in the source; their conditions may differ.

How the values were obtained:
[1] = system: PDAC; experiment: en bloc tumor culture with chemotherapeutic agent and Hom-1-TAMs: PDAC; format: cell-based; settings: agent plus Hom-1-TAMs
Description: (§1) Besides CRC, Hom-1-TAMs reverse immune polarity of PDAC and NSCLC TME (data not shown). The effects of Hom-1-TAM on tumoricidal effects of DOX were further explored on other tumor types, such as PDAC, NSLC, esophageal cancer and stomach cancers.
(§2) Additional chemo-reagents used in this study are listed below.
(§3) Tumor tissue were washed with 1×PBS buffer plus antibiotics and then cut into 0.5 cm pieces. Tissues were cultured in 2 mL of RPMI 1640 medium, supplemented with 2-10% FBS (Sigma) and 1% antibiotic-antimycotic solution (Gibco) in 24-well plate (Corning). The cultures were incubated at a 37° C., 5% CO2 incubator. […] To evaluate the effect of chemotherapeutic agents, chemo-reagents at indicated concentration or PBS was used instead of the anti-PD-1 antibody. For en bloc tissue and macrophage co-culture assay, 0.25×10^6 GFP-Hom-1 or control GFP transfected autologous macrophages of the same patient were added to the en bloc tissue culture wells. After gently shaking, the plate was incubated at 37° C., 5% CO2 for 3-5 days. The en bloc tissues were then subjected to single 1 cell isolation and analysis as described.

[2] = system: ovarian cancer; experiment: en bloc tumor culture with chemotherapeutic agent and Hom-1-TAMs: ovarian cancer; format: cell-based; settings: agent plus Hom-1-TAMs
Description: as §2, §3

[3] = system: stomach cancer; experiment: en bloc tumor culture with chemotherapeutic agent and Hom-1-TAMs: stomach cancer; format: cell-based; settings: agent plus Hom-1-TAMs
Description: as §1, §2, §3

[4] = system: TAMs and Treg in NSCLC-TME; experiment: en bloc NSCLC culture: effects of PD-1 antibody on TAMs and Treg (FACS, qRT-PCR of Hom-1); format: cell-based, human; settings: 1 μg/mL Pembrolizumab, 48 hours
Description: The effects of the treatment on TAMs were determined by FACS analysis of cell surface expression of CD68 and CD206 and qRT-PCR analysis of Hom-1 expression levels.
Total RNA was isolated by the TRIzol reagent (Life Technologies) and RNA amounts were measured by NanoDrop 2000 (Thermo Scientific). Equal amount of RNA was used for first-strand cDNA synthesis with SuperScript III First-Strand Synthesis System (Life Technologies) according to the manufacturer's protocol. The AccuPrime Taq DNA polymerase system (Life Technologies) was used to amplify Hom-1 cDNA with conventional PCR. Quantitative measurements of Hom-1 and other cDNA were carried out with SYBR Green, using a Mastercycler ep Gradient S (Eppendorf). GAPDH was used as a house keeping gene to normalize mRNA expression. Relative expression profiles of mRNAs were calculated using the comparative Ct method (DDCT method).
Tumor tissue were washed with 1×PBS buffer plus antibiotics and then cut into 0.5 cm pieces. Tissues were cultured in 2 mL of RPMI 1640 medium, supplemented with 2-10% FBS (Sigma) and 1% antibiotic-antimycotic solution (Gibco) in 24-well plate (Corning). The cultures were incubated at a 37° C., 5% CO2 incubator. […] To evaluate the effect of chemotherapeutic agents, chemo-reagents at indicated concentration or PBS was used instead of the anti-PD-1 antibody. […]

[5] = system: CD8 T cells in NSCLC-TME; experiment: en bloc NSCLC culture: PD-1 antibody activation of CD8 T cells (FACS and ELISA of IL-2, IFN-γ); format: cell-based, human
Description: Tumor infiltrating T (TIL) cells and TAMs were then isolated, and their functional status were determined by FACS analysis.
Single cell suspensions were then generated and stained with FITC conjugated anti-CD8 antibody. The cells were then fixed, permeabilized, stained with PE-conjugated anti-IL2, or anti-IFNy antibodies and analyzed by a flow cytometry.
The culture media were collected after 48 hours. The levels of IL-2, and IFN-γ were quantified using ELISA kits, and statistical significance was determined by a two-way ANOVA analysis.
Levels of IL-1B, IL-2, IFN-γ and TNF-α were quantified using ELISA kits obtained from eBiosciences. Analyses were conducted according to the manufacturer's instructions. Triplicate wells were plated for each condition.
as §3, with “After gently shaking, the plate was incubated at 37° C., 5% CO2 for 3-5 days. The en bloc tissues were then subjected to single 1 cell isolation and analysis as described.” left out

[6] = system: NSCLC cancer cells; experiment: en bloc NSCLC culture: cancer cell viability by PI-staining and FACS; format: cell-based, human; settings: PD-1 antibody alone, 5 days
Description: Single cell suspensions were then obtained by mechanical disruption. The tumor cells were fixed and permeabilized, and were stained with CK7 antibodies and non-tumor epithelial cells were stained with EP4 antibodies. The cells were labeled with PI and percentage of PI positive cells were determined by FACS analysis.
As TME has been implicated in ICI resistance, it was next shown that reversal of immune suppression at NSCLC-TME increased efficacy of PD-1 antibodies. Specifically, en block NSCLC or control nLung tissues were treated with PD-1 or control antibodies, and co-cultured with autologous TAMs transfected with Hom-1 or control GFP. The effects of co-culturing were determined by FACS analysis of cancer or normal epithelial cell viability.
Tumor tissue were washed with 1×PBS buffer plus antibiotics and then cut into 0.5 cm pieces. Tissues were cultured in 2 mL of RPMI 1640 medium, supplemented with 2-10% FBS (Sigma) and 1% antibiotic-antimycotic solution (Gibco) in 24-well plate (Corning). […]
Single cell suspensions generated from en bloc tissue culture were washed with FACS staining solution (PBS plus 2% FBS), fixed and permeabilized (Invitrogen) and then stained with Ber-EP4 antibodies for normal epithelial cells and CK7, CK19 and CK20 for cancer cells for 30 minutes on ice. […] Cell viability were then analyzed with a flow cytometry.

[7] = system: primary human NSCLC; experiment: individual NSG-PDX models of primary human NSCLC; format: in vivo, NSG mice; settings: infusion of PD-1 antibody alone
Description: Specifically, individual NSG-PDX models of primary NSCLC were generated by engrafting small pieces of primary NSCLC tissues into subcutaneous space on the dorsal lateral side of NSG mice.
Individual NSG-PDX models of primary human lung cancers were developed according to standard procedure. All animal experiments were approved by the Institutional Animal Care and Use Committee. Briefly, 8-week-old NOD.Cg-Prkdc^scid Il2rg^tm1Wjl/SzJ mice (commonly known as NOD scid gamma, or NSG mice) were purchased from the Jackson Laboratory and maintained under specific pathogen-free conditions. NSCLC tumors were cut into around 0.5 cm pieces and then surgically implanted into subcutaneous space on the dorsal side of NSG mice. […] The tumor growth was monitored twice weekly and measured by a caliper for 6 weeks. Tumor volumes were calculated according to the formula ½ (length×width^2).

## Nc1ccn([C@@H]2O[C@H](CO)[C@@H](O)C2(F)F)c(=O)n1 [Gemcitabine]
[1]
  tumoricidal effects promoted by Hom-1-TAMs: promoted

## CC(=O)O[C@H]1C(=O)[C@@]2(C)[C@H]([C@H](OC(=O)c3ccccc3)[C@]3(O)C[C@H](OC(=O)[C@H](O)[C@@H](NC(=O)c4ccccc4)c4ccccc4)C(C)=C1C3(C)C)[C@]1(OC(C)=O)CO[C@@H]1C[C@@H]2O [Taxol]
[2]
  tumoricidal effects promoted by Hom-1-TAMs: promoted
[3]
  tumoricidal effects promoted by Hom-1-TAMs: promoted

## Pembrolizumab [PD-1 antibody]
[4]
  phenotypical changes of Treg cells and TAMs: no significant phenotypical changes of the Treg cells and TAMs
[4]; qRT-PCR
  expression of Hom-1 in TAMs: did not alter the expression of Hom-1 in TAMs
[5]; 1 μg/mL Pembrolizumab vs human IgG4, 24 or 48 hours
  CD8 T cell activation (expression and secretion of IL-2 and IFN-γ): activates CD8 T cells in TME; also recorded: activates CD8^+ CTL
[5]; various concentrations, 48 hours, ELISA
  dosage dependence of PD-1 antibody effect on CD8 T cell activation: dosage dependent
[6]
  PI-staining of tumor cells (tumoricidal effect): modest tumoricidal effects on cancer cells
[6]; listed as anti-PD-1 antibodies
  PI-staining of tumor cells (tumoricidal effect): modest increase of PI-staining of tumor cells
[7]
  inhibition of tumorigenesis: modest inhibition of tumorigenesis
